Marks after values point to notes of the source that are not given here.
What was measured:
biofilm = assay: Pilot plant wastewater pipes, difference in Hazen-Williams coefficient treated vs control pipe; details: for HW Diff. treated pipe - Control: single 3 h treatment on day 1 at 10 ppm as total chlorine
Experimental: Treated wastewater was pumped through several pipes of 10 m length and 4 inches inner diameter in a pilot plant. […] Pressure drop through each pipe was monitored on-line, and average HW coefficients were calculated.
The biofilm inhibiting substance in this example was produced as follows, using a small feeding system was built specifically for this trial. […] The concentration of the biofilm inhibiting substance pre-injection solution was ˜3600 ppm and the pH was 9.2-9.6. […]

[1] = system: mixed culture of slime-forming-bacteria which had been isolated from a paper machine; assay: Formation of biofilm on stainless steel coupons in a model system (viable counts in medium and on coupons); type: cell-based
Experimental: Formation of biofilm on stainless steel coupons in the presence or absence of an oxidizing biocide or a biofilm inhibiting substance was evaluated in the laboratory. The test system consisted of (a) three closed flasks each containing 20 L nutrient-rich medium (diluted three-fold from its recommended use concentration), (b) three closed cells containing stainless steel coupons hanging freely, and (c) three identical circulation pumps, each pump connected via plastic pipes to one of the flasks and to one of the cells. The system was placed in a thermostatic room at 35° C.
An innoculum containing a mixed culture of slime-forming-bacteria which had been isolated from a paper machine was added to each of the flasks. An oxidizer containing a 5 ppm mixture (expressed as total Cl2) of bromochlorodimethylhydantoin (an oxidizing biocide which is a source of HOBr and HOCl) (hereinafter “mixed halogens”) was added to the first flask once a day for the duration of the trial (4 days). […] The third flask served as a control for the two flasks treated with the oxidizing biocide or biofilm inhibiting substances. […] A diluted solution of sodium hypochlorite in deionized (DI) water (˜8000 ppm as total chlorine) was fed with one pump; a diluted solution of ammonium bromide (12500 ppm) was fed with the second pump. The two diluted solutions were synchronously mixed in a short glass pipe to form a pre-injection solution of biofilm inhibiting substance, using a pH meter to control and check the stability of the biofilm inhibiting substance formed. The biofilm inhibiting substance was fed to the test system immediately as it was produced.
On days 2 and 4, each closed cell was opened and 2 coupons were aseptically removed from each cell. At the same time samples of the circulating medium were taken as well. Sampling was conducted after feeding the daily slug dose of biocide.
Each sample of medium was serially 10-fold diluted in sterile saline solution and plated in molten agar. Each coupon was thoroughly rinsed to remove any adhered particles, aseptically scraped, and the material removed by scraping was quantitatively dispersed in saline solution, vortexed, serially 10-fold diluted and plated in molten agar. Viable counts of microorganisms were taken after 48 h of incubation at 35° C. Viable counts of cells in the medium are presented as colony forming units (cfu) per ml; viable counts on the coupon surfaces are presented as cfu/cm^2.

[2] = De-inking plant field trial, residual H2O2, residual biofilm inhibiting substance and H2O2 consumption
Experimental: A de-inking system had been using 7-10 kg H2O2 per ton of waste paper.
The reaction pH was Maintained at 9.8-10.0. The Production process was controlled to ensure synchronous metering of the two chemicals, continuous mixing at the predetermined molar ratio and reproducible production of a stable biofilm inhibiting substance stock solution for the duration of the trial and longer. […] After 850 minutes the dosing rate was reduced to 85 g/ton expressed as total Cl2 by feeding the biofilm inhibiting substance semi-continuously. Various parameters were monitored during start-up of the trial: Residual biofilm inhibiting substance was measured (using a Hach pocket colorimeter, total Cl2, based on the DPD method adapted from Standard Methods for Examination of Waste and Waste Water). […] When necessary, samples were diluted with DI water.

catalase (Merck) = assay: Inactivation of catalase, residual H2O2 laboratory test; type: biochemical
Experimental: Freshly prepared biofilm inhibiting substance was added to the appropriate flasks containing diluted catalase at a pre-defined feed rate. The contents of the containers were mixed for 60 minutes at room temperature prior to addition of H2O2 (to a final H2O2 concentration of 3.5 g/l). After addition of the H2O2, the mixture was allowed to mix for 30 minutes at room temperature, at which point H2O2 residues were measured in each flask in accordance with the Dr. Lange Cuvette Test LCW 058, measured with LASA 20 (based on Jander/Blasius: Lehrbach der Analytischen and Praparative Anorganischen Chemie, as described in the Handbook of Photometrical Operation Analysis (October 1997)).
Sodium hypochlorite was diluted in DI water to a final concentration of 6000 ppm expressed as total chlorine. Ammonium bromide solution (equimolar to 1.1 mole of the diluted sodium hypochlorite solution, 10% excess on a molar basis) and ammonium chloride solution (equimolar to 1.1 mole of the diluted hypochlorite solution, 10% excess on a molar basis) were prepared. The diluted hypochlorite (50 ml) was added dropwise to 50 ml of the appropriate ammonium salt while the pH was constantly measured. The biofilm inhibiting substance concentration in the produced stock solution was immediately measured and the biofilm inhibiting substance at the appropriate feed level was immediately added to the test flasks.

bromide activated chloramine [Fuzzicide BAC]
HW Diff. treated pipe - Control (biofilm; day 1): 14.3 | HW Difference, Fuzzicide BAC - Control (biofilm; day 1 of trial (treatment day), 10 ppm as total chlorine for 3 h three times a week): 10.12 | HW Diff. treated pipe - Control (biofilm; day 2): 13.7 | HW Difference, Fuzzicide BAC - Control (biofilm; day 2 of trial, 10 ppm as total chlorine for 3 h three times a week): 11.25 | HW Diff. treated pipe - Control (biofilm; day 3): 12.8 | HW Difference, Fuzzicide BAC - Control (biofilm; day 3 of trial, 10 ppm as total chlorine for 3 h three times a week): 11.62 | HW Diff. treated pipe - Control (biofilm; day 4): 16.5 | HW Difference, Fuzzicide BAC - Control (biofilm; day 4 of trial, 10 ppm as total chlorine for 3 h three times a week): 13.04 | HW Diff. treated pipe - Control (biofilm; day 5): 16.0 | HW Difference, Fuzzicide BAC - Control (biofilm; day 5 of trial (treatment day), 10 ppm as total chlorine for 3 h three times a week): 12.35 | HW Diff. treated pipe - Control (biofilm; day 6): 16.55 | HW Difference, Fuzzicide BAC - Control (biofilm; day 6 of trial, 10 ppm as total chlorine for 3 h three times a week): 13.76 | HW Diff. treated pipe - Control (biofilm; day 7): 15.8 | HW Difference, Fuzzicide BAC - Control (biofilm; day 7 of trial, 10 ppm as total chlorine for 3 h three times a week): 15.13 | HW Diff. treated pipe - Control (biofilm; day 8): 14.3 | HW Diff. treated pipe - Control (biofilm; day 9): 16.9 | HW Diff. treated pipe - Control (biofilm; day 10): 15.3 | HW Diff. treated pipe - Control (biofilm; day 11): 16.0 | HW Diff. treated pipe - Control (biofilm; day 12): 18.1 | HW Diff. treated pipe - Control (biofilm; day 13): 17.2 | HW Diff. treated pipe - Control (biofilm; day 14): 15.0 | HW Diff. treated pipe - Control (biofilm; day 15): 11.9 | HW Diff. treated pipe - Control (biofilm; day 16): 9.1 | HW Diff. treated pipe - Control (biofilm; day 17): 7.3 | HW Diff. treated pipe - Control (biofilm; day 18): 7.2 | HW Difference, Fuzzicide BAC - Control (biofilm; day 26 of trial, between days 7 and 26 the biocide was improperly prepared, rendering it ineffective): 6.11 | HW Difference, Fuzzicide BAC - Control (biofilm; day 27 of trial (treatment day), 10 ppm as total chlorine for 3 h three times a week): 6.67 | HW Difference, Fuzzicide BAC - Control (biofilm; day 28 of trial, 10 ppm as total chlorine for 3 h three times a week): 7.13 | HW Difference, Fuzzicide BAC - Control (biofilm; day 29 of trial (treatment day), 10 ppm as total chlorine for 3 h three times a week): 8.75 | HW Difference, Fuzzicide BAC - Control (biofilm; day 30 of trial, 10 ppm as total chlorine for 3 h three times a week): 8.93 | HW Difference, Fuzzicide BAC - Control (biofilm; day 31 of trial, 10 ppm as total chlorine for 3 h three times a week): 8.93 | HW Difference, Fuzzicide BAC - Control (biofilm; day 32 of trial, 10 ppm as total chlorine for 3 h three times a week): 9.02 | HW Difference, Fuzzicide BAC - Control (biofilm; day 33 of trial (treatment day), 10 ppm as total chlorine for 3 h three times a week): 8.89 | HW Difference, Fuzzicide BAC - Control (biofilm; day 34 of trial, 10 ppm as total chlorine for 3 h three times a week): 8.93 | HW Difference, Fuzzicide BAC - Control (biofilm; day 35 of trial, 10 ppm as total chlorine for 3 h three times a week): 9.12 | HW Difference, Fuzzicide BAC - Control (biofilm; day 36 of trial (treatment day), 10 ppm as total chlorine for 3 h three times a week): 10.31 | HW Difference, Fuzzicide BAC - Control (biofilm; day 37 of trial, 10 ppm as total chlorine for 3 h three times a week): 9.96 | HW Difference, Fuzzicide BAC - Control (biofilm; day 38 of trial, 10 ppm as total chlorine for 3 h three times a week): 13.97 | state of coupons ([1]; after 2 days): remained clean | state of coupons ([1]; after 4 days): remained clean | control of planktonic microorganisms ([1]; medium sample after four days, within detection limits): complete control of planktonic microorganisms | Viable Counts After 2 Days, medium ([1]; planktonic cells in circulating medium, day 2, daily slug dose (Mixed Halogens 5 ppm, Fuzzicide BAC […] expressed as Cl2), 35° C.): 1 × 10^6 cfu/ml | Viable Counts After 4 Days, medium ([1]; planktonic cells in circulating medium, day 4, daily slug dose (Mixed Halogens 5 ppm, Fuzzicide BAC […] expressed as Cl2)): <100* cfu/ml | Viable Counts After 2 Days, coupon surfaces ([1]; stainless steel coupons, day 2, daily slug dose (Mixed Halogens 5 ppm, Fuzzicide BAC […] expressed as Cl2)): <27* cfu/cm^2 | Viable Counts After 4 Days, coupon surfaces ([1]; stainless steel coupons, day 4, daily slug dose (Mixed Halogens 5 ppm, Fuzzicide BAC […] expressed as Cl2)): <27* Cfu/cm^2 | H2O2 feed rate maintaining de-inking bleaching targets ([2]; after a few more days of semi-continuous dosing): ~2.2 kg/ton | feed rate of H2O2 needed in order to maintain bleaching set point ([2]; after about 48 hours of semi-continuous dosing, before trial 7-10 kg H2O2 per ton of waste paper): ~4 kg/ton | Residual H2O2 concentration, % of 3.5% g/l (catalase (Merck); BIS 8.1 ppm as total chlorine, catalase 26 units/ml, 60 min preincubation, 30 min after H2O2): 21.4 % of 3.5% g/l | Residual H2O2 concentration, % of 3.5% g/l (catalase (Merck); BIS 60 ppm as total chlorine, catalase 0 units/ml (no enzyme)): 100 % of 3.5% g/l | Residual H2O2 concentration, % of 3.5% g/l (catalase (Merck); BIS 60 ppm as total chlorine, catalase 26 units/ml): 100 % of 3.5% g/l | Residual H2O2 concentration, % of 3.5% g/l (catalase (Merck); BIS 140 ppm as total chlorine, catalase 26 units/ml): 100 % of 3.5% g/l
